# Data reported in patent US20060069132A1, “Azolecarboxamide herbicides” (priority 2004, published 2006).
# Experiments:
# morningglory = test: Test B pre-/postemergence herbicide test; format: in vivo, Ipomoea coccinea; conditions: for Plant response rating (0 to 100 scale), Morningglory: 0 is no effect; for Plant response rating (0 to 100 scale), Morningglory / Plant response rating, Morningglory: preemergence; for Morningglory plant response rating: postemergence; for Plant response rating, Morningglory: 0 = no effect, 100 = complete control
# How it was run: (§1)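 Pre: seeds sown, then sprayed. Post: 1–4-leaf plants (2–18 cm) sprayed at the same time. Paddy: flooded, treated at 2-leaf stage. Formulation: non-phytotoxic solvent with surfactant. Greenhouse 13–15 days; visual 0–100 score relative to controls.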
# [1] = test system: small flower umbrella sedge; test: Test B flooded paddy test; format: in vivo, Cyperus difformis; conditions: 1000 g ai/ha, scale 0 to 100 (0 no effect, 100 complete control)
# How it was run: (§2)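 Read-out: visual comparison with controls, scored 0 to 100, where 100 means complete control and 0 no effect. Formulated chemicals were applied postemergence to plants 2–18 cm tall (1- to 4-leaf), or to flooded-paddy plants at the 2-leaf stage, then held 13 to 15 days under glass.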
# pigweed = test: Test B pre-/postemergence herbicide test; format: in vivo, Amaranthus retroflexus; conditions: for Plant response rating (0 to 100 scale), Pigweed: 0 is no effect; for Plant response rating (0 to 100 scale), Pigweed / Plant response rating, Pigweed: preemergence; for Pigweed plant response rating: postemergence; for Plant response rating, Pigweed: 0 = no effect, 100 = complete control
# How it was run: (§3)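 Flooded paddy rice and barnyardgrass were treated at the 2-leaf stage; upland plantings received compound either on sown seed or on 1- to 4-leaf seedlings. All were kept 13–15 days in a greenhouse and scored visually, 0–100, relative to untreated plants.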
# ducksalad = test: Test B flooded paddy test; format: in vivo, Heteranthera limosa; conditions: 1000 g ai/ha, scale 0 to 100 (0 no effect, 100 complete control)
# How it was run: as §2
# lambsquarters = test: Test B pre-/postemergence herbicide test; format: in vivo, Chenopodium album; conditions: for Plant response rating (0 to 100 scale), Lambsquarters: 0 is no effect; for Plant response rating (0 to 100 scale), Lambsquarters / Plant response rating, Lambsquarters: preemergence; for Lambsquarters plant response rating: postemergence; for Plant response rating, Lambsquarters: 0 = no effect, 100 = complete control
# How it was run: as §3
# wild oat = test: Test B postemergence herbicide test; format: in vivo, Avena fatua; conditions: postemergence
# How it was run: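 Postemergence plants were sprayed with formulated test chemicals at 2 to 18 cm height (1- to 4-leaf stage); paddy species were grown to the 2-leaf stage. After 13 to 15 days in a greenhouse, injury was rated visually against untreated controls on a 0–100 scale (0 = no effect, 100 = complete control).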
# blackgrass = test: Test B postemergence herbicide test; format: in vivo, Alopecurus myosuroides; conditions: postemergence
# How it was run: as §2
# velvetleaf = test: Test B pre-/postemergence herbicide test; format: in vivo, Abutilon theophrasti; conditions: for Plant response rating (0 to 100 scale), Velvetleaf: 0 is no effect; for Velvetleaf plant response rating: postemergence
# How it was run: as §3
# rice = test: Test B flooded paddy test; format: in vivo, Oryza sativa; conditions: 1000 g ai/ha, scale 0 to 100 (0 no effect, 100 complete control)
# How it was run: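 After treating 2-leaf paddy plants or 2–18 cm postemergence plants (1 to 4 leaves) with formulated chemical, researchers kept them in a greenhouse for 13–15 days. Effects were judged visually versus controls: 0 indicates none, 100 total control.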
# corn = test: Test B pre-/postemergence herbicide test; format: in vivo, Zea mays; conditions: for Plant response rating (0 to 100 scale), Corn: 0 is no effect; for Plant response rating (0 to 100 scale), Corn / Plant response rating, Corn: preemergence; for Corn plant response rating: postemergence; for Plant response rating, Corn: 0 = no effect, 100 = complete control
# How it was run: as §3
# giant foxtail = test: Test B pre-/postemergence herbicide test; format: in vivo, Setaria faberi; conditions: for Plant response rating (0 to 100 scale), Foxtail, Giant: 0 is no effect; for Plant response rating (0 to 100 scale), Foxtail, Giant / Plant response rating, Foxtail, Giant: preemergence; for Foxtail, Giant plant response rating: postemergence; for Plant response rating, Foxtail, Giant: 0 = no effect, 100 = complete control
# How it was run: as §3
# large crabgrass = test: Test B pre-/postemergence herbicide test; format: in vivo, Digitaria sanguinalis; conditions: for Plant response rating (0 to 100 scale), Crabgrass, Large: 0 is no effect; for Plant response rating (0 to 100 scale), Crabgrass, Large / Plant response rating, Crabgrass, Large: preemergence; for Crabgrass, Large plant response rating: postemergence; for Plant response rating, Crabgrass, Large: 0 = no effect, 100 = complete control
# How it was run: as §3
# Surinam grass = test: Test B pre-/postemergence herbicide test; format: in vivo, Urochloa decumbens; conditions: for Plant response rating (0 to 100 scale), Surinam Grass: 0 is no effect; for Plant response rating (0 to 100 scale), Surinam Grass / Plant response rating, Surinam Grass: preemergence; for Surinam Grass plant response rating: postemergence; for Plant response rating, Surinam Grass: 0 = no effect, 100 = complete control
# How it was run: as §3
# cocklebur = test: Test B pre-/postemergence herbicide test; format: in vivo, Xanthium strumarium; conditions: for Plant response rating (0 to 100 scale), Cocklebur: 0 is no effect; for Plant response rating (0 to 100 scale), Cocklebur / Plant response rating, Cocklebur: preemergence; for Cocklebur plant response rating: postemergence; for Plant response rating, Cocklebur: 0 = no effect, 100 = complete control
# How it was run: as §1
# barnyardgrass = test: Test B pre-/postemergence herbicide test; format: in vivo, Echinochloa crus-galli; conditions: for Plant response rating (0 to 100 scale), Barnyardgrass: 0 is no effect; for Plant response rating (0 to 100 scale), Barnyardgrass / Plant response rating, Barnyardgrass: preemergence; for Barnyardgrass plant response rating: postemergence; for Plant response rating, Barnyardgrass: 0 = no effect, 100 = complete control
# How it was run: as §1
# [2] = 125 g ai/ha, 100 is complete control
# [3] = 125 g ai/ha, visual rating, scale 0 (no effect) to 100 (complete control)
# [4] = 500 g ai/ha, scale 0 to 100, 0 is no effect, 100 is complete control
# [5] = 125 g ai/ha, 100 is complete control, preemergence
smiles,measurement,setting,value
CCN(CC)C(=O)c1cccc(NC(=O)c2cc(C(C)(C)C)nn2C)n1 [Compound 314],"Plant response rating (0 to 100 scale), Morningglory",morningglory; [2],0
same,Morningglory plant response rating,morningglory; [3],20
same,"Plant response rating, Morningglory","morningglory; 500 g ai/ha, visual rating",20
same,Morningglory plant response rating,morningglory; [4],80
same,"Sedge, Umbrella plant response rating",[1],60
same,"Plant response rating (0 to 100 scale), Pigweed",pigweed; [2],90
same,Pigweed plant response rating,pigweed; [3],60
same,"Plant response rating, Pigweed","pigweed; 500 g ai/ha, visual rating",100
same,Pigweed plant response rating,pigweed; [4],70
same,Ducksalad plant response rating,ducksalad,0
same,"Plant response rating (0 to 100 scale), Lambsquarters",lambsquarters; [2],20
same,Lambsquarters plant response rating,lambsquarters; [3],30
same,"Plant response rating, Lambsquarters","lambsquarters; 500 g ai/ha, visual rating",80
same,Lambsquarters plant response rating,lambsquarters; [4],60
same,"Oat, Wild plant response rating",wild oat; [3],10
same,"Oat, Wild plant response rating",wild oat; [4],30
same,Blackgrass plant response rating,blackgrass; [3],10
same,Blackgrass plant response rating,blackgrass; [4],20
same,"Plant response rating (0 to 100 scale), Velvetleaf",velvetleaf; [5],20
same,Velvetleaf plant response rating,velvetleaf; [3],20
same,"Plant response rating, Velvetleaf","velvetleaf; 500 g ai/ha, visual rating, 0 = no effect, 100 = complete control, preemergence",100
same,Velvetleaf plant response rating,velvetleaf; [4],30
same,Rice plant response rating,rice,0
same,"Plant response rating (0 to 100 scale), Corn",corn; [2],0
same,Corn plant response rating,corn; [3],10
same,"Plant response rating, Corn","corn; 500 g ai/ha, visual rating",10
same,Corn plant response rating,corn; [4],20
same,"Plant response rating (0 to 100 scale), Foxtail, Giant",giant foxtail; [2],30
same,"Foxtail, Giant plant response rating",giant foxtail; [3],20
same,"Plant response rating, Foxtail, Giant","giant foxtail; 500 g ai/ha, visual rating",100
same,"Foxtail, Giant plant response rating",giant foxtail; [4],20
same,"Plant response rating (0 to 100 scale), Crabgrass, Large",large crabgrass; [2],20
same,"Crabgrass, Large plant response rating",large crabgrass; [3],10
same,"Plant response rating, Crabgrass, Large","large crabgrass; 500 g ai/ha, visual rating",30
same,"Crabgrass, Large plant response rating",large crabgrass; [4],20
same,"Plant response rating (0 to 100 scale), Surinam Grass",Surinam grass; [2],20
same,Surinam Grass plant response rating,Surinam grass; [3],20
same,"Plant response rating, Surinam Grass","Surinam grass; 500 g ai/ha, visual rating",80
same,Surinam Grass plant response rating,Surinam grass; [4],20
same,"Plant response rating (0 to 100 scale), Cocklebur",cocklebur; [2],0
same,Cocklebur plant response rating,cocklebur; [3],10
same,"Plant response rating, Cocklebur","cocklebur; 500 g ai/ha, visual rating",0
same,Cocklebur plant response rating,cocklebur; [4],30
same,"Plant response rating (0 to 100 scale), Barnyardgrass",barnyardgrass; [2],10
same,Barnyardgrass plant response rating,barnyardgrass; [3],10
same,"Plant response rating, Barnyardgrass","barnyardgrass; 500 g ai/ha, visual rating",90
same,Barnyardgrass plant response rating,barnyardgrass; [4],30
C=CCNC(=O)c1cccc(NC(=O)c2cc(C(C)(C)C)nn2C)n1 [Compound 318],"Plant response rating (0 to 100 scale), Morningglory",morningglory; [2],0
same,Morningglory plant response rating,morningglory; [3],0
same,"Plant response rating, Morningglory","morningglory; 500 g ai/ha, visual rating",30
same,Morningglory plant response rating,morningglory; [4],80
same,"Sedge, Umbrella plant response rating",[1],80
same,"Plant response rating (0 to 100 scale), Pigweed",pigweed; [2],90
same,Pigweed plant response rating,pigweed; [3],70
same,"Plant response rating, Pigweed","pigweed; 500 g ai/ha, visual rating",100
same,Pigweed plant response rating,pigweed; [4],100
same,Ducksalad plant response rating,ducksalad,70
same,"Plant response rating (0 to 100 scale), Lambsquarters",lambsquarters; [2],90
same,Lambsquarters plant response rating,lambsquarters; [3],80
same,"Plant response rating, Lambsquarters","lambsquarters; 500 g ai/ha, visual rating",100
same,Lambsquarters plant response rating,lambsquarters; [4],80
same,"Oat, Wild plant response rating",wild oat; [3],0
same,"Oat, Wild plant response rating",wild oat; [4],30
same,Blackgrass plant response rating,blackgrass; [3],10
same,Blackgrass plant response rating,blackgrass; [4],10
same,"Plant response rating (0 to 100 scale), Velvetleaf",velvetleaf; [5],20
same,Velvetleaf plant response rating,velvetleaf; [3],40
same,Velvetleaf plant response rating,velvetleaf; [4],80
same,Rice plant response rating,rice,40
same,"Plant response rating (0 to 100 scale), Corn",corn; [2],0
same,Corn plant response rating,corn; [3],20
same,"Plant response rating, Corn","corn; 500 g ai/ha, visual rating",0
same,Corn plant response rating,corn; [4],20
same,"Plant response rating (0 to 100 scale), Foxtail, Giant",giant foxtail; [2],0
same,"Foxtail, Giant plant response rating",giant foxtail; [3],10
same,"Plant response rating, Foxtail, Giant","giant foxtail; 500 g ai/ha, visual rating",80
same,"Foxtail, Giant plant response rating",giant foxtail; [4],10
same,"Plant response rating (0 to 100 scale), Crabgrass, Large",large crabgrass; [2],10
same,"Crabgrass, Large plant response rating",large crabgrass; [3],10
same,"Plant response rating, Crabgrass, Large","large crabgrass; 500 g ai/ha, visual rating",90
same,"Crabgrass, Large plant response rating",large crabgrass; [4],60
same,"Plant response rating (0 to 100 scale), Surinam Grass",Surinam grass; [2],0
same,Surinam Grass plant response rating,Surinam grass; [3],10
same,"Plant response rating, Surinam Grass","Surinam grass; 500 g ai/ha, visual rating",40
same,Surinam Grass plant response rating,Surinam grass; [4],20
same,"Plant response rating (0 to 100 scale), Cocklebur",cocklebur; [2],0
same,Cocklebur plant response rating,cocklebur; [3],10
same,"Plant response rating, Cocklebur","cocklebur; 500 g ai/ha, visual rating",0
same,Cocklebur plant response rating,cocklebur; [4],80
same,"Plant response rating (0 to 100 scale), Barnyardgrass",barnyardgrass; [2],40
same,Barnyardgrass plant response rating,barnyardgrass; [3],40
same,"Plant response rating, Barnyardgrass","barnyardgrass; 500 g ai/ha, visual rating",90
same,Barnyardgrass plant response rating,barnyardgrass; [4],70
